According to BindingDB's records for doi:10.1016/j.bmcl.2010.10.034 (Bristol-Myers Squibb Research and Development, 2010):

Biological target: cAMP-dependent protein kinase catalytic subunit beta (Homo sapiens) (UniProt P22694)
Assay: Inhibition of PKAbeta

IC50: > 40 µM
SMILES: Cc1ccc(C(=O)Nc2ccon2)cc1NC(=O)c1cnn(-c2ccccc2F)c1N [5-amino-1-(2-fluorophenyl)-N-(5-(isoxazol-3-ylcarbamoyl)-2-methylphenyl)-1H-pyrazole-4-carboxamide]
